According to US20250257075A1, “MACROCYCLIC INHIBITORS OF KRAS FOR THE TREATMENT OF CANCER” (Hoffmann-La Roche Inc., priority 2022, published 2025):

Columns and labels:
[1] = target: KRAS G12D binding to BRAF (Homo sapiens, UniProt P01116+P62937, G12D); experiment: KRAS-BRAF with CYPA (500 nM) interaction assay (TR-FRET), G12D; type: biochemical; conditions: 3 hours
Protocol: (§1) Kras-BRAF with CYPA (500 nM) Interaction Assay In this example, TR-FRET was also used to measure the compound or compound-CYPA dependent disruption of the KRAS G12C-BRAF complex. This protocol was also used to measure disruption of KRAS G12D or KRAS G12V binding to BRAF by a compound of the invention, respectively. […] TR-FRET signal was read on a […] microplate reader (Ex320 nm, Em 665/615 nm). Compounds that facilitate disruption of the KRAS-BRAF complex were identified as those eliciting a decrease in the TR-FRET ratio relative to DMSO control wells.

[2] = test system: SW620 cells (KRAS G12V); experiment: Cell viability assay, G12V; type: cell-based, human; conditions: Homo sapiens, SW-620; SW620, 72 hrs, Cell Counting Kit-8
Protocol: (§2) The purpose of this cellular assay was to determine the effects of test compounds on the proliferation of human cancer cell lines NCI-H358 (ATCC-CRL5807) cells, AGS (ATCC-CRL-1739) cells, SW620 (ATCC-CCL-227) over a 3-day treatment period by quantifying the amount of NADPH present at endpoint using Cell Counting Kit-8.
(§3) Cells were seeded at 5,000 cells/well (NCI-H358), 2,000 cells/well (AGS) 2,000 cells/well (SW620) in 96-well assay plates (Corning-3699) and incubated overnight. On the day of the assay, diluted compounds were then added in a final concentration of 0.5% DMSO. After 72 hrs incubation, a tenth of the volume of cell counting kit 8 (Dnjindo-CK04) was added into each well. Read the signal (OD450 minus OD650) using EnVision after 2 hrs incubation. IC50 was determined by fitting a 4-parameter sigmoidal concentration response model.

[3] = test system: NCI-H358 cells (KRAS G12C); experiment: Cell viability assay, G12C; type: cell-based, human; conditions: Homo sapiens; NCI-H358, 72 hrs, Cell Counting Kit-8
Protocol: as §2, §3

[4] = target: T1, KRAS G12C-BRAF complex (Homo sapiens, UniProt P01116+P62937, G12C); experiment: KRAS-BRAF with CYPA (500 nM) interaction assay (TR-FRET), G12C; type: biochemical; conditions: 3 hours
T1 construct: expressed in transfected cells
Protocol: as §1

[5] = test system: phosphorylation of ERK, KRAS G12D in AGS cells; experiment: pERK inhibition assay, G12D; type: cell-based, human; conditions: Homo sapiens, 4 hours of incubation
Protocol: (§4) This assay is to measure the ability of test compounds in inhibiting the phosphorylation of ERK, the downstream signaling of KRAS G12C in NCI-H358 cells, KRAS G12D in AGS cells, and KRAS G12V in SW620. NCI-H358 (ATCC-CRL5807) cells, AGS (ATCC-CRL-1739) cells, SW620 (ATCC-CCL-227) cells were all grown and maintained using RPMI-1640 medium (Thermo Fisher Scientific) with 10% fetal bovine serum and 1% penicillin/streptomycin. On the day prior to compound addition, cells were plated in tissue culture-treated 96 well plates (Corning-3699) at a density of 30,000 cell/well, 20,000 cell/well, 30,000 cell/well for NCI-H358, AGS and SW620 respectively, and allowed for attachment overnight. Diluted compounds were then added in a final concentration of 0.5% DMSO. After 4 hours of incubation, the medium was removed, 100 μL of 4% formaldehyde was added, and the assay plates were incubated at room temperature for 20 minutes. The plates were then washed once with phosphate buffered saline (PBS), and permeabilized with 100 μL of chilled methanol for 10 minutes. Non-specific antibody binding to the plates was blocked using 50 μL 1×BSA blocking buffer (Thermo-37520, 10-fold dilution by Phosphate-Buffered Saline Tween (PBST) for at least 1 hour at room temperature.
(§5) The amount of phosphor-ERK was determined using an antibody specific for phosphorylated form of ERK. Primary antibody (pERK, CST-4370, Cell Signaling Technology) was diluted 1:300 in blocking buffer, with 50 μL aliquoted to each well, and incubated overnight at 4° C. Cells was washed five times for 5 minutes with PBST. Secondary antibody (HRP-linked anti-rabbit IgG, CST-7074, Cell Signaling Technology) was diluted 1:1000 in blocking buffer, and 50 μL was added to each well and incubated 1-2 hrs at room temperature. Cells was washed 5 times for 5 minutes with PBST, 100 μL TMB ELISA substrate (abcam-ab171523) were added and gently shake for 20 minutes. 50 μL stop solution (abcam-ab171529) were added, and then read the signal (OD450) by EnVision.
(§6) IC50 was determined by fitting a 4-parameter sigmoidal concentration response model.

[6] = test system: AGS cells (KRAS G12D); experiment: Cell viability assay, G12D; type: cell-based, human; conditions: Homo sapiens, 72 hrs, Cell Counting Kit-8
Protocol: as §2, §3

[7] = target: KRAS G12V binding to BRAF (Homo sapiens, UniProt P01116+P62937, G12V); experiment: KRAS-BRAF with CYPA (500 nM) interaction assay (TR-FRET), G12V; type: biochemical; conditions: 3 hours
Protocol: as §1

[8] = test system: phosphorylation of ERK, KRAS G12V in SW620; experiment: pERK inhibition assay, G12V; type: cell-based, human; conditions: Homo sapiens, SW-620; SW620, 4 hours of incubation
Protocol: as §4, §5, §6

[9] = target: T1, KRAS G12C-BRAF complex; experiment: KRAS G12C-BRAF NanoBit assay in HEK293 cells; type: cell-based; conditions: HEK293 stable cell pool, 3 hours of incubation
Protocol: This assay is to measure the ability of tested compounds in disruption of the KRAS G12C-BRAF complex at the cellular level, we established the NanoBit cellular assay in mammalian HEK293 (ATCC) cells. HEK293 cells were grown and maintained using DMEM medium (Thermo Fisher Scientific) with 10% fetal bovine serum and 1% penicillin/streptomycin. Both KRAS G12C and BRAF RBD were cloned into the NanoBit vectors ([…] vectors system, Promega) with the orientations SmBit-KRAS G12C and BRAF RBD-LgBit, respectively, and co-transfected into HEK293 cells. Cells were then selected with 100 μg/mL Hygromycin B (10687010, Thermo Fisher) and Blasticidin (5 μg/mL) for 4 weeks to get the stable cell pool. On the day of the assay, 75 nL of compound solution was presented in a 384-well assay plate as a 16-point 3-fold dilution starting from a final concentration of 30 μM in DMSO. Then cells were seeded at 10,000 cells/25 μL/well in a 384-well plate. After 3 hours of incubation, 6 μL of volume of Nano-Glo® Live Cell Substrate (Promega) was added into each well. Monitor luminescence using ultra384 model in Envision at 20 minutes. Compounds that facilitate disruption of the KRAS G12C-BRAF RBD complex were identified as those eliciting a decrease of luminescence relative to DMSO control wells.

[10] = test system: phosphorylation of ERK, KRAS G12C in NCI-H358 cells; experiment: pERK inhibition assay, G12C; type: cell-based, human; conditions: Homo sapiens; NCI-H358, 4 hours of incubation
Protocol: as §4, §5, §6

Chain of KRAS G12D binding to BRAF (P01116 1-188 isoform P01116-2 G12D): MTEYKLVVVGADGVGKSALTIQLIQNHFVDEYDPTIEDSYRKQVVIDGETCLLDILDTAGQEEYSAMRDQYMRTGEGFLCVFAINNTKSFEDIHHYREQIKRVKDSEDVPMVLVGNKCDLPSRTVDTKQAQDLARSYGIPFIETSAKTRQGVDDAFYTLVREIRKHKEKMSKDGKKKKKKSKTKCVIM
Chain of KRAS G12D binding to BRAF (P62937 whole entry): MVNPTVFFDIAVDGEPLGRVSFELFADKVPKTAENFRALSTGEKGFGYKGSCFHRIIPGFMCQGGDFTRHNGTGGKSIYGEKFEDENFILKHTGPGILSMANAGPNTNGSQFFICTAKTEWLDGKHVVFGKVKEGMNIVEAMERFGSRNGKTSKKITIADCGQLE
T1 sequence (P01116 1-188 isoform P01116-2 G12C): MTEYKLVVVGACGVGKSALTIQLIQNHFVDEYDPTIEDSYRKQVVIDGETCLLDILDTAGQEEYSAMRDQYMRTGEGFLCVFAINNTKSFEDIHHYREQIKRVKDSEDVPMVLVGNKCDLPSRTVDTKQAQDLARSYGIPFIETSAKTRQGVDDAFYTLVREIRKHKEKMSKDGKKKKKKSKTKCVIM
T1 sequence (P62937 whole entry): as the sequence (P62937 whole entry) above
Chain of KRAS G12V binding to BRAF (P01116 1-188 isoform P01116-2 G12V): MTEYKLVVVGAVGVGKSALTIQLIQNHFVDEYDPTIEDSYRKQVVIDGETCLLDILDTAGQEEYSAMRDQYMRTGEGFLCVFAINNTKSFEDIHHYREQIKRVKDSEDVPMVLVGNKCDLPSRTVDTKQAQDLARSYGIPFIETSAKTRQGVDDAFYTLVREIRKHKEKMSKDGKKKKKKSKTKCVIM
Chain of KRAS G12V binding to BRAF (P62937 whole entry): as the sequence (P62937 whole entry) above

Row | SMILES | IC50 [1] [µM] | IC50 [2] [µM] | IC50 [3] [µM] | IC50 [4] [µM] | IC50 [5] [µM] | IC50 [6] [µM] | IC50 [7] [µM] | IC50 [8] [µM] | IC50 [9] [µM] | IC50 [10] [µM]
1 | CO[C@@H](C)c1ncc(N2CCN(C)CC2)cc1-c1c2c3cc(c(F)cc3n1CC(F)(F)F)-c1csc(n1)C[C@H](NC(=O)[C@H](C(C)C)N(C)C(=O)[C@H]1CC[C@H](C#CC(F)(F)F)CC1)C(=O)N1CCC[C@H](N1)C(=O)OCC(C)(C)C2 (atropisomer, axis not shown; (M)) [Example 9, trans-N-[(1S)-1-[[(7S,13S)-24-fluoro-(20M)-20-[2-[(1S)-1-methoxyethyl]-5-(4-methylpiperazin-1-yl)-3-pyridyl]-17,17-dimethyl-8,14-dioxo-21-(2,2,2-trifluoroethyl)-15-oxa-4-thia-9,21,27,28-tetrazapentacyclo[17.5.2.1^2,5.1^9,13.0^22,26]octacosa-1(25),2,5(28),19,22(26),23-hexaen-7-yl]carbamoyl]-2-methyl-propyl]-N-methyl-4-(3,3,3-trifluoroprop-1-ynyl)cyclohexanecarboxamide] | 3.01 | > 5 | 0.436 | 0.819 | 1.77 | > 5 | 1.98 | 0.498 | 0.418 | 0.292
2 | CO[C@@H](C)c1ncc(N2CCN(C)CC2)cc1-c1c2c3cc(c(F)cc3n1CC(F)(F)F)-c1csc(n1)C[C@H](NC(=O)[C@H](C(C)C)N(C)C(=O)[C@H]1CC[C@@H](C#CC(F)(F)F)CC1)C(=O)N1CCC[C@H](N1)C(=O)OCC(C)(C)C2 (atropisomer, axis not shown; (M)) [Example 10, cis-N-[(1S)-1-[[(7S,13S)-24-fluoro-(20M)-20-[2-[(1S)-1-methoxyethyl]-5-(4-methylpiperazin-1-yl)-3-pyridyl]-17,17-dimethyl-8,14-dioxo-21-(2,2,2-trifluoroethyl)-15-oxa-4-thia-9,21,27,28-tetrazapentacyclo[17.5.2.1^2,5.1^9,13.0^22,26]octacosa-1(25),2,5(28),19,22(26),23-hexaen-7-yl]carbamoyl]-2-methyl-propyl]-N-methyl-4-(3,3,3-trifluoroprop-1-ynyl)cyclohexanecarboxamide] | 1.91 | > 5 | 0.078 | > 10 | 0.152 | 0.876 | 1.48 | 0.065 | 0.12 | 0.048
3 | CO[C@@H](C)c1ncc(N2CCN(C)CC2)cc1-c1c2c3c(F)c(ccc3n1CC(F)(F)F)-c1csc(n1)C[C@H](NC(=O)[C@H](C(C)C)N(C)C(=O)[C@H]1C[C@@H](C#CC(F)(F)F)C1)C(=O)N1CCC[C@H](N1)C(=O)OCC(C)(C)C2 (atropisomer, axis not shown; (M)) [Example 12, cis-N-[(1S)-1-[[(7S,13S)-25-fluoro-(20M)-20-[2-[(1S)-1-methoxyethyl]-5-(4-methylpiperazin-1-yl)-3-pyridyl]-17,17-dimethyl-8,14-dioxo-21-(2,2,2-trifluoroethyl)-15-oxa-4-thia-9,21,27,28-tetrazapentacyclo[17.5.2.1^2,5.1^9,13.0^22,26]octacosa-1(25),2,5(28),19,22(26),23-hexaen-7-yl]carbamoyl]-2-methyl-propyl]-N-methyl-3-(3,3,3-trifluoroprop-1-ynyl)cyclobutanecarboxamide] | 1.47 | 0.36 | 0.033 | 0.063 | 0.667 | 3.1 | 0.484 | 0.201 | 0.067 | 0.092
